Results on 17 compounds are retold here after patent publication US12195482B1 (Arcus Biosciences, Inc., priority 2022, dated 2025).

A value given as a limit tells only on which side of the number the result lay.

The target in one assay is T1, p-AXL (Homo sapiens, UniProt P30530).
T1 construct: expressed in transfected cells; host or cells: HEK293T
T1 sequence (P30530 26-894): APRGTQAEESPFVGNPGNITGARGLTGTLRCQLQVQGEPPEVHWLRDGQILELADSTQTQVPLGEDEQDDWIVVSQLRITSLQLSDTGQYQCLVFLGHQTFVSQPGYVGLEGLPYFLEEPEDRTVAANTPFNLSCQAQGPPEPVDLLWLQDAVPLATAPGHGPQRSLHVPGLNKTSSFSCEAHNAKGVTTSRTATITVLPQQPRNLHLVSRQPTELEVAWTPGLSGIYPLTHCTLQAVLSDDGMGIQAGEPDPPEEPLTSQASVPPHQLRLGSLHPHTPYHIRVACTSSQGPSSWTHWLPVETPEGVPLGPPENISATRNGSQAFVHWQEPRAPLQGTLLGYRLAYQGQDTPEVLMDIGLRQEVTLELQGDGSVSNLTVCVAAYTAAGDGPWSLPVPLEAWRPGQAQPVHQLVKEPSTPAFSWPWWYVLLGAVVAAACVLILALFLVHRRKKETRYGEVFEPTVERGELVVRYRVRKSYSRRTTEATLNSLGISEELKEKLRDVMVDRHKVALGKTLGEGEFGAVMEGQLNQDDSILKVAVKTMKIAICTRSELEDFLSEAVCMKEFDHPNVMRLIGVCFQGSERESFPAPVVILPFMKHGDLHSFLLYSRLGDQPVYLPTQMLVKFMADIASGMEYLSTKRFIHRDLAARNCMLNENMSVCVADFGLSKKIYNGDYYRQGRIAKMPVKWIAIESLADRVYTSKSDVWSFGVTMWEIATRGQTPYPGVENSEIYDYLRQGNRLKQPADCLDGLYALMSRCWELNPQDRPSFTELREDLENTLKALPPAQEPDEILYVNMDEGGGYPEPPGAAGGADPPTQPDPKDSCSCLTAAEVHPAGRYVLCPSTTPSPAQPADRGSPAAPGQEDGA
Description: Axl phosphorylation inhibition ELISA in HEK293T cells transfected with NanoLuc-tagged AXL. In kind it is cell-based. As to conditions: 1 h compound incubation, media (OptiMEM). The essentials:
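Phospho-AXL detected by luminescence of NanoLuc tag after capture of cell lysate on biotinylated anti-phospho-tyrosine mAb plates (2 h). Lysates came from transiently transfected HEK293T cells treated 1 h at 37° C with serial 2-fold dilutions (22 points). IC50 by standard 4-parameter logistic fitting.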
Turning to `Cn1cnnc1-c1ccc(-c2n[nH]c3ncc(-c4ccc5c(c4)CC[C@@H](N4C6COCC4C6)CC5)cc23)cc1` [Example 169, 6-[(7S)-2-{3-[4-(4-Methyl-4H-1,2,4-triazol-3-yl)phenyl]-1H-pyrazolo[3,4-b]pyridin-5-yl}-6,7,8,9-tetrahydro-5H-benzo[7]annulen-7-yl]-3-oxa-6-azabicyclo[3.1.1]heptane], the IC50 was less than 0.1 µM.

`Cn1ccnc1-c1ccc(-c2n[nH]c3ncc(-c4ccc5c(c4)CC[C@@H](N4C6COCC4C6)CC5)cc23)cc1` [Example 111, 6-[(7S)-2-{3-[4-(1-Methyl-1H-imidazol-2-yl)phenyl]-1H-pyrazolo[3,4-b]pyridin-5-yl}-6,7,8,9-tetrahydro-5H-benzo[7]annulen-7-yl]-3-oxa-6-azabicyclo[3.1.1]heptane] yielded an IC50 of less than 0.1 µM.

As for `CC(C)(O)c1cccnc1-c1ccc(-c2n[nH]c3ncc(-c4ccc5c(c4)CC[C@@H](N4C6COCC4C6)CC5)cc23)nc1` [Example 100, 2-(6′-{5-[(7S)-7-{3-Oxa-6-azabicyclo[3.1.1]heptan-6-yl}-6,7,8,9-tetrahydro-5H-benzo[7]annulen-2-yl]-1H-pyrazolo[3,4-b]pyridin-3-yl}-[2,3′-bipyridin]-3-yl)propan-2-ol], the IC50 was less than 0.1 µM.

Regarding `OC1(c2cccnc2-c2ccc(-c3c[nH]c4ncc(-c5ccc6c(c5)CC[C@@H](N5C7COCC5C7)CC6)cc34)cc2)CCC1` [Example 22, 1-[2-[4-[5-[(7S)-7-(3-Oxa-6-azabicyclo[3.1.1]heptan-6-yl)-6,7,8,9-tetrahydro-5H-benzo[7]annulen-3-yl]-1H-pyrrolo[2,3-b]pyridin-3-yl]phenyl]pyridin-3-yl]cyclobutan-1-ol], the IC50 was less than 0.1 µM.

As for `Cc1ccc(-c2ccc(-c3n[nH]c4ncc(-c5ccc6c(c5)CC[C@@H](N5C7COCC5C7)CC6)cc34)cc2)nc1` [Example 115, 6-[(7S)-2-{3-[4-(5-Methylpyridin-2-yl)phenyl]-1H-pyrazolo[3,4-b]pyridin-5-yl}-6,7,8,9-tetrahydro-5H-benzo[7]annulen-7-yl]-3-oxa-6-azabicyclo[3.1.1]heptane], the IC50 was 0.1 to 1 µM.

Turning to `CC(C)(C#N)c1cccnc1-c1ccc(-c2c[nH]c3ncc(-c4ccc5c(c4)CC[C@@H](N4C6COCC4C6)CC5)cc23)cc1` [Example 21, 2-Methyl-2-[2-[4-[5-[(7S)-7-(3-oxa-6-azabicyclo[3.1.1]heptan-6-yl)-6,7,8,9-tetrahydro-5H-benzo[7]annulen-3-yl]-1H-pyrrolo[2,3-b]pyridin-3-yl]phenyl]pyridin-3-yl]propanenitrile], the IC50 is less than 0.1 µM.

`Cc1cccc(-c2ccc(-c3n[nH]c4ncc(-c5ccc6c(c5)CC[C@@H](N5C7COCC5C7)CC6)cc34)cc2)n1` [Example 116, 6-[(7S)-2-{3-[4-(6-Methylpyridin-2-yl)phenyl]-1H-pyrazolo[3,4-b]pyridin-5-yl}-6,7,8,9-tetrahydro-5H-benzo[7]annulen-7-yl]-3-oxa-6-azabicyclo[3.1.1]heptane] registered an IC50 of 0.1 to 1 µM.

For `Cc1cccnc1-c1ccc(-c2c[nH]c3ncc(-c4ccc5c(c4)CC[C@@H](N4C[C@@H]6C[C@H]4CO6)CC5)cc23)cc1` [Example 187, (4S)-5-[(7S)-2-{3-[4-(3-Methylpyridin-2-yl)phenyl]-1H-pyrrolo[2,3-b]pyridin-5-yl}-6,7,8,9-tetrahydro-5H-benzo[7]annulen-7-yl]-2-oxa-5-azabicyclo[2.2.1]heptane], the IC50 was less than 0.1 µM.

`Cc1cccnc1-c1ccc(-c2n[nH]c3ncc(-c4ccc5c(c4)CC[C@@](C)(N4CCC[C@H]4C)CC5)cc23)nc1` [Example 105, 3-Methyl-6′-{5-[(7S)-7-methyl-7-[(2R)-2-methylpyrrolidin-1-yl]-6,7,8,9-tetrahydro-5H-benzo[7]annulen-2-yl]-1H-pyrazolo[3,4-b]pyridin-3-yl}-2,3′-bipyridine] returned an IC50 of less than 0.1 µM.

In turn, `O=C1CCCN1c1cccnc1-c1ccc(-c2n[nH]c3ncc(-c4ccc5c(c4)CC[C@@H](N4C6COCC4C6)CC5)cc23)cc1` [Example 177, 1-[2-(4-{5-[(7S)-7-{3-Oxa-6-azabicyclo[3.1.1]heptan-6-yl}-6,7,8,9-tetrahydro-5H-benzo[7]annulen-2-yl]-1H-pyrazolo[3,4-b]pyridin-3-yl}phenyl)pyridin-3-yl]pyrrolidin-2-one] had an IC50 of less than 0.1 µM.

In the case of `Cc1ccnc(-c2ccc(-c3n[nH]c4ncc(-c5ccc6c(c5)CC[C@@H](N5C7COCC5C7)CC6)cc34)cc2)c1C` [Example 118, 6-[(7S)-2-{3-[4-(3,4-Dimethylpyridin-2-yl)phenyl]-1H-pyrazolo[3,4-b]pyridin-5-yl}-6,7,8,9-tetrahydro-5H-benzo[7]annulen-7-yl]-3-oxa-6-azabicyclo[3.1.1]heptane], the IC50 is less than 0.1 µM.

In the case of `CC(C)(O)c1ccccc1-c1ccc(-c2n[nH]c3ncc(-c4ccc5c(c4)CC[C@@H](N4C6COCC4C6)CC5)cc23)cn1` [Example 113, 2-[2-(5-{5-[(7S)-7-{3-Oxa-6-azabicyclo[3.1.1]heptan-6-yl}-6,7,8,9-tetrahydro-5H-benzo[7]annulen-2-yl]-1H-pyrazolo[3,4-b]pyridin-3-yl}pyridin-2-yl)phenyl]propan-2-ol], the IC50 was less than 0.1 µM.

In turn, `Cc1cc(F)cnc1-c1ccc(-c2c[nH]c3ncc(-c4ccc5c(c4)CC[C@@H](N4C6COCC4C6)CC5)cc23)cc1` [Example 29, 6-[(7S)-3-[3-[4-(5-Fluoro-3-methylpyridin-2-yl)phenyl]-1H-pyrrolo[2,3-b]pyridin-5-yl]-6,7,8,9-tetrahydro-5H-benzo[7]annulen-7-yl]-3-oxa-6-azabicyclo[3.1.1]heptane] came in with an IC50 of 0.1 to 1 µM.

`Cc1nc(-c2ccc(-c3n[nH]c4ncc(-c5ccc6c(c5)CC[C@@H](N5C7COCC5C7)CC6)cc34)cc2)n(C)n1` [Example 23, 6-[(7S)-2-{3-[4-(1,3-Dimethyl-1H-1,2,4-triazol-5-yl)phenyl]-1H-pyrazolo[3,4-b]pyridin-5-yl}-6,7,8,9-tetrahydro-5H-benzo[7]annulen-7-yl]-3-oxa-6-azabicyclo[3.1.1]heptane]: the IC50 is less than 0.1 µM.

The compound `Cc1ccccc1-c1ccc(-c2c[nH]c3ncc(-c4ccc5c(c4)CC[C@@H](N4C6COCC4C6)CC5)cc23)nc1` [Example 97, 6-[(7S)-2-{3-[5-(2-Methylphenyl)pyridin-2-yl]-1H-pyrrolo[2,3-b]pyridin-5-yl}-6,7,8,9-tetrahydro-5H-benzo[7]annulen-7-yl]-3-oxa-6-azabicyclo[3.1.1]heptane] yielded an IC50 greater than 1 µM.

`CS(=O)(=O)c1cccnc1-c1ccc(-c2n[nH]c3ncc(-c4ccc5c(c4)CC[C@@H](N4C6COCC4C6)CC5)cc23)cc1` [Example 101, 6-[(7S)-2-{3-[4-(3-Methanesulfonylpyridin-2-yl)phenyl]-1H-pyrazolo[3,4-b]pyridin-5-yl}-6,7,8,9-tetrahydro-5H-benzo[7]annulen-7-yl]-3-oxa-6-azabicyclo[3.1.1]heptane] came in with an IC50 of less than 0.1 µM.

`Cc1ncc(C)c(-c2ccc(-c3n[nH]c4ncc(-c5ccc6c(c5)CC[C@@H](N5C7COCC5C7)CC6)cc34)cc2)n1` [Example 122, 6-[(7S)-2-{3-[4-(2,5-Dimethylpyrimidin-4-yl)phenyl]-1H-pyrazolo[3,4-b]pyridin-5-yl}-6,7,8,9-tetrahydro-5H-benzo[7]annulen-7-yl]-3-oxa-6-azabicyclo[3.1.1]heptane] displayed an IC50 of less than 0.1 µM.

The target of another assay is T2, Axl (Homo sapiens, UniProt P30530).
T2 sequence (P30530 26-894): T1 sequence (P30530 26-894)
Description: Axl NanoBRET intracellular kinase assay (intracellular binding, K-5 tracer displacement). Set-up: host or cells: HEK-293. The note with it: HEK-293 cells transfected with Axl-NanoLuc, 0.35 μM K-5 NanoBRET tracer; read-out: Cell Binding AXL. Here is the method:
Measuring Intracellular Binding of Axl Inhibitors
Axl NanoBRET™ intracellular kinase assay (Promega, N2540) was performed according to manufacturer's recommendation. In brief, HEK-293 cells are transiently transfected with Ax1-NanoLuc fusion vector (Promega, NV1071), utilizing Fugene HD transfection reagent (Promega, E2311) a day before experiment following manufacturer's recommendation.
The day of the assay, the cells were collected and resuspended in Opti-MEM media (ThermoFisher, 31985070) at 2e5 cells/mL concentration. Testing compounds were serial diluted and dispensed into a white 384 well polystyrene plate at 200 nL in 100% DMSO. 40 μL of resuspended cells is then added per well for a final condition of 8K cells/well with 0.5% DMSO. After one-hour compound pre-incubation at 37° C. and 5% CO2, cells were further incubated with 0.35 μM K-5 NanoBRET tracer for two-hours at 37° C. and 5% CO2. […] of 3× substrate plus Inhibitor solution was prepared according to kits manual and added to the cells followed by a 30 second pulse centrifugation spin. The plate was then immediately read utilizing an Envision (Perkin Elmer) plate reader. The BRET signal is measured by taking the ratio of the emissions reading at 610 nm and 450 nm. Compound binding is based on the decrease BRET signal caused by the displacement of the K-5 tracer. […] ICso value of compounds was determined by 4-parameter non-linear regression fitting of percent activity in GraphPad Prism software.
In general terms: BRET reads energy transfer from a luciferase to a nearby fluorophore.
Take `Cn1cnnc1-c1ccc(-c2n[nH]c3ncc(-c4ccc5c(c4)CC[C@@H](N4C6COCC4C6)CC5)cc23)cc1` [Example 169, 6-[(7S)-2-{3-[4-(4-Methyl-4H-1,2,4-triazol-3-yl)phenyl]-1H-pyrazolo[3,4-b]pyridin-5-yl}-6,7,8,9-tetrahydro-5H-benzo[7]annulen-7-yl]-3-oxa-6-azabicyclo[3.1.1]heptane]: the IC50 is less than 0.1 µM.

As for `Cn1ccnc1-c1ccc(-c2n[nH]c3ncc(-c4ccc5c(c4)CC[C@@H](N4C6COCC4C6)CC5)cc23)cc1` [Example 111, 6-[(7S)-2-{3-[4-(1-Methyl-1H-imidazol-2-yl)phenyl]-1H-pyrazolo[3,4-b]pyridin-5-yl}-6,7,8,9-tetrahydro-5H-benzo[7]annulen-7-yl]-3-oxa-6-azabicyclo[3.1.1]heptane], the IC50 was less than 0.1 µM.
